Assay results reported in patent publication US4721715A, “Derivatives of 4-(arylpiperazinyl-ethylaminoethoxy) phenol useful for effecting hypolipidemic therapy or cardiovascular therapy” (Societe Cortial, S.A., priority 1984, dated 1988).
Where a name gives a salt, the structure may show the parent alone. Read-outs that look alike come from different tables or passages of the source.

Assays:
[1] = Toxicity, intravenous administration to mice; format: in vivo; details: mouse, in vivo, intravenous, read-out: mortality rate
mice [2] = experiment: Toxicity, intravenous administration to mice; format: in vivo; details: intravenous, 6.2 mg/kg
[3] = test system: spontaneously hypertensive rats; experiment: Antihypertensive activity, spontaneously hypertensive rats, oral, arterial pressure at the tail; format: in vivo; details: 100 mg/kg
Experimental: In another experiment that was also performed with oral administration in spontaneously hypertensive rats, arterial pressure was measured indirectly at the tail two, four and six hours after administration.

[4] = test system: phenylephrine-induced hypertension; experiment: Alpha-blocking activity in vivo: antagonism of phenylephrine-induced hypertension in rats with spinal cord removal and bivagotomy; details: Rattus norvegicus, intravenous
Experimental: (§1) Alpha-blocking activity was determined in vivo in mice with the test involving inhibition of mydriasis induced by norepinephrine. […] Thirty minutes later, 0.75 mg/kg norepinephrine was administered intravenously. […] In vivo alpha-blocking activity was also evaluated by determination of antagonism of phenylephrine-induced hypertension. The test products were administered by the intravenous route to rats that had undergone spinal cord removal and bivagotomy according to the technique by J. S. Gillespie and T. S. Muir (Br. J. Pharmac. Chemother. 30:78-87, 1967). The dosage, maximum activity, and the interval after which residual activity was equal to 50% of the maximum activity are presented below: […]

[5] = test system: norepinephrine-induced mydriasis; experiment: Alpha-blocking activity in vivo: inhibition of norepinephrine-induced mydriasis in mice; details: 30 min before 0.75 mg/kg norepinephrine IV
Experimental: as §1

[6] = test system: climbing induced by apomorphine; experiment: Neuroleptic activity: climbing test (apomorphine) in mice; format: in vivo; details: apomorphine 1.5 mg/kg
Experimental: The neuroleptic activity of COR 2865 was determined in the climbing test. […] They were given 1.5 mg/kg apomorphine in order to induce a maximum climbing level.

[7] = Toxicity, oral administration to mice; format: in vivo; details: mouse, in vivo, oral route, confidence interval in parentheses
mice [8] = experiment: Toxicity, intraperitoneal administration to mice; details: mice, intraperitoneal dose of 200 mg per kg
[9] = test system: mice with hypercholesterolemia; experiment: Hypolipidemic activity in mice with diet-induced hypercholesterolemia; format: in vivo; details: oral 100 mg/kg on the sixth and seventh day
Experimental: Hypolipidemic Activity: In mice with hypercholesterolemia produced by a diet high in cholesterol and cholic acid fed for seven days, administration of an oral dose of 100 mg/kg COR 2865 on the sixth and seventh day brought about a reduction in serum cholesterol of 31% and a reduction of HP-betalipoproteins of 38% as well as a decrease in the VLDL+LDL/cholesterol ratio.

[10] = test system: stereotypy induced by apomorphine; experiment: Neuroleptic activity: inhibition of apomorphine-induced stereotypy in rats; details: 100 mg/kg intraperitoneal, apomorphine 2.5 mg/kg subcutaneous

CCOc1ccccc1N1CCN(CCOc2cc(C)c(O)cc2C(C)C)CC1 [COR 2865, 5-Isopropyl-2-methyl-4-((2-ethoxyphenyl)piperazinylethoxy) phenol hydrochloride]
mortality ([1]; 12.5 mg/kg): 10% | mortality ([1]; 25 mg/kg): 20% | mortality ([1]; 50 mg/kg): 5% | mortality ([1]; 100 mg/kg): 90% | deaths (mice [2]): no deaths | pressure reduction ([3]; four hours after administration): 21% | pressure reduction ([3]; six hours after administration): 23% | pressure reduction ([3]; two hours after administration): 19% | ED50 ([4]; 2 min, after 2 min): 0.0117 µmol/kg | ED50 ([4]; 0.5 h, after 30 min): 0.318 µmol/kg | ED50 ([4]; 1 h, after 60 min): 0.5 µmol/kg | inhibition in vivo at 1 µM, 1 µmol/kg ([4]; 10^-6 M/kg, read-out: maximum activity (antagonism of phenylephrine-induced hypertension)): 122% | inhibition of mydriasis ([5]; 1 mg/kg intraperitoneal): 54% | inhibition of mydriasis ([5]; 2.5 mg/kg intraperitoneal): 80% | inhibition of the climbing induced by apomorphine ([6]; 10 mg per kg intraperitoneal): 83% | inhibition of the climbing induced by apomorphine ([6]; 25 mg/kg intraperitoneal): 100% | LD50 [7]: 1440 mg/kg | deaths (mice [8]): no deaths | reduction in serum cholesterol [9]: 31% | reduction of HP-betalipoproteins [9]: 38% | inhibition of apomorphine-induced stereotypy [10]: 67%
